Test system: male rats
Conditions: rat, in vivo

Compound	effect on test peptide induced penile erection	effect on penile erections induced by 2 μg of the test peptides into the PVN	also measured
OCCN1CCN(CC/C=C2/c3ccccc3Sc3ccc(C(F)(F)F)cc32)CC1 [cis-flupenthixol]	did not modify the penile erection		
ω-conotoxin-GVIA			effect on penile erection induced by 2 μg of the test peptides into the PVN: reduced penile erection
CN1CC[C@]23c4c5ccc(O)c4O[C@H]2[C@@H](O)C=C[C@H]3[C@H]1C5 [morphine]		reduced in a dose-dependent manner	
C[C@]12N[C@H](Cc3ccccc31)c1ccccc12 [MK 801, dizolcipine]	did not modify the penile erection		
COC(=O)[C@@H](N)CCCNC(=N)N[N+](=O)[O-] [L-NAME, N^G -nitro-1-arginine methyl ester]		reduced in a dose dependent manner	
